{"source": "paper PMC3970809", "about": "“Spectral characteristics of the mutant form GGBP/H152C of D-glucose/D-galactose-binding protein labeled with fluorescent dye BADAN: influence of external factors” (PeerJ, 2014)", "target": "T1, D-glucose/D-galactose-binding protein (GGBP), mutant form GGBP/H152C labeled with BADAN (Escherichia coli, UniProt P0AEE5, H175C)", "T1 construct": "gene mglB; GGBP/H152C-BADAN (BADAN linked to Cys 152)", "T1 sequence (P0AEE5 24-332 H175C limits assumed)": "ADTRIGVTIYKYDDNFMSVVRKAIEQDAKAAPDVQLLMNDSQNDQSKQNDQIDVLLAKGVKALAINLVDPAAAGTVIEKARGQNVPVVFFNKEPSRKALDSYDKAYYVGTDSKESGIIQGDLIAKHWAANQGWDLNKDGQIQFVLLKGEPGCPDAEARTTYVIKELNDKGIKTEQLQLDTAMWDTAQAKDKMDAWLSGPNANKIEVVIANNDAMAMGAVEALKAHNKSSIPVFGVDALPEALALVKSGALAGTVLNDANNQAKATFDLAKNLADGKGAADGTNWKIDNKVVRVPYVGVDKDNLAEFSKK", "experiment": "BADAN fluorescence titration (Kd by nonlinear regression); stopped-flow binding kinetics", "data": [{"smiles": "OC[C@H]1OC(O)[C@H](O)[C@@H](O)[C@@H]1O", "note": "(stereo partly shown) [Glc]", "values": [{"measurement": "Kd", "result": 8.5, "unit": "µM"}]}]}
